molecular target: influenza A virus minigenome (PB2, PB1, PA, NP proteins) (UniProt P04665); type: cell-based; conditions: read-out: RNP_ Hubei B IC50
Sequence (P04665 whole entry): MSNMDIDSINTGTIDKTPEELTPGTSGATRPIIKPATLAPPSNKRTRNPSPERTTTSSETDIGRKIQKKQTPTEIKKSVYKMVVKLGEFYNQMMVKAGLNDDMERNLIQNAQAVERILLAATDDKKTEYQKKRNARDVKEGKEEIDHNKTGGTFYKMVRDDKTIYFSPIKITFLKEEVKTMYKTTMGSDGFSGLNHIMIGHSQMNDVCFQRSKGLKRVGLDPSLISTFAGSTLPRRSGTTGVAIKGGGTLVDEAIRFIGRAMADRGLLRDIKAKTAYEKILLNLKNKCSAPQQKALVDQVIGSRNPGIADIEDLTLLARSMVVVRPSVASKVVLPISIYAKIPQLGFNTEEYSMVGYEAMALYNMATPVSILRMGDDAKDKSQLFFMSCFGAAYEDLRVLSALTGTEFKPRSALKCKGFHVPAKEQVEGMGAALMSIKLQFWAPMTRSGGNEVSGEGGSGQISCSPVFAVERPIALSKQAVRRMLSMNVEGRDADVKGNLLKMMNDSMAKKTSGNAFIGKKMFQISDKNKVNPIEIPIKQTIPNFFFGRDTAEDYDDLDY

Compound | IC50
NC(=O)c1cc(-c2ccc(OCC3COCC(COCC(F)F)O3)cc2)c(C(F)(F)F)[nH]c1=O (single isomer, unassigned) [Example 369, 5-(4-((6-((2,2-difluoroethoxy)methyl)-1,4-dioxan-2-yl)methoxy)phenyl)-2-oxo-6-(trifluoromethyl)-1,2-dihydropyridine-3-carboxamide] | 5 to 10 µM
NC(=O)c1cc(-c2ccc(OC[C@@H]3COCC4(COC4)O3)cc2)c(C(F)(F)F)[nH]c1=O [Example 415, (S)-5-(4-((2,5,8-trioxaspiro[3.5]nonan-6-yl)methoxy)phenyl)-2-oxo-6-(trifluoromethyl)-1,2-dihydropyridine-3-carboxamide] | 5 to 10 µM
CCN1CC(COc2ccc(-c3cc(C(N)=O)c(=O)[nH]c3C(F)(F)F)cc2)OC1=O (stereo not shown) [Example 234, 5-(4-((3-ethyl-2-oxooxazolidin-5-yl)methoxy)phenyl)-2-oxo-6-(trifluoromethyl)-1,2-dihydropyridine-3-carboxamide] | 25 to 50 µM
NC(=O)c1cc(-c2ccc(OCC3COC(C(F)F)CO3)cc2)c(C(F)(F)F)[nH]c1=O (single isomer, unassigned) [Example 345, 5-(4-((5-(difluoromethyl)-1,4-dioxan-2-yl)methoxy)phenyl)-2-oxo-6-(trifluoromethyl)-1,2-dihydropyridine-3-carboxamide] | 5 to 10 µM
C[C@]1(CC#N)COC[C@@H](COc2ccc(-c3cc(C(N)=O)c(=O)[nH]c3C(F)(F)F)cc2)O1 [Example 411, 5-(4-(((2S,6S)-6-(cyanomethyl)-6-methyl-1,4-dioxan-2-yl)methoxy)phenyl)-2-oxo-6-(trifluoromethyl)-1,2-dihydropyridine-3-carboxamide] | 5 to 10 µM
NC(=O)c1cc(-c2ccc(OCC3COC4(CC4)CO3)cc2)c(C(F)(F)F)[nH]c1=O (racemic) [Example 338, 5-(4-((4,7-dioxaspiro[2.5]octan-6-yl)methoxy)phenyl)-2-oxo-6-(trifluoromethyl)-1,2-dihydropyridine-3-carboxamide] | 10 to 25 µM
COCCOC[C@@]1(C)COC[C@@H](COc2ccc(-c3cc(C(N)=O)c(=O)[nH]c3C(F)(F)F)cc2)O1 [Example 430, 5-(4-(((2S,6S)-6-((2-methoxyethoxy)methyl)-6-methyl-1,4-dioxan-2-yl)methoxy)phenyl)-2-oxo-6-(trifluoromethyl)-1,2-dihydropyridine-3-carboxamide] | 5 to 10 µM
NC(=O)c1cc(-c2ccc(OCC3(F)COC3)cc2)c(C(F)(F)F)[nH]c1=O [Example 226, 5-(4-((3-fluorooxetan-3-yl)methoxy)phenyl)-2-oxo-6-(trifluoromethyl)-1,2-dihydropyridine-3-carboxamide] | 25 to 50 µM
CC1CN(C(=O)OC(C)(C)C)CC1COc1ccc(-c2cc(C(N)=O)c(=O)[nH]c2C(F)(F)F)cc1 (stereo not shown) [Example 303, Tert-butyl 3-((4-(5-carbamoyl-6-oxo-2-(trifluoromethyl)-1,6-dihydropyridin-3-yl)phenoxy)methyl)-4-methylpyrrolidine-1-carboxylate] | 10 to 25 µM
NC(=O)c1cc(-c2ccc(OCC3COCC(C4CCCC4)O3)cc2)c(C(F)(F)F)[nH]c1=O (racemic) [Example 333, 5-(4-((6-cyclopentyl-1,4-dioxan-2-yl)methoxy)phenyl)-2-oxo-6-(trifluoromethyl)-1,2-dihydropyridine-3-carboxamide] | 1 to 5 µM
CC(C)n1cc2c(n1)COCC2COc1ccc(-c2cc(C(N)=O)c(=O)[nH]c2C(F)(F)F)cc1 (single isomer, unassigned) [Example 296, 5-(4-((2-isopropyl-2,4,5,7-tetrahydropyrano[3,4-c]pyrazol-4-yl)methoxy)phenyl)-2-oxo-6-(trifluoromethyl)-1,2-dihydropyridine-3-carboxamide] | 5 to 10 µM
C[C@@]12O[C@@H](COc3ccc(-c4cc(C(N)=O)c(=O)[nH]c4C(F)(F)F)cc3)CO[C@@H]1C2(F)F [Example 396, 5-(4-(((1R,3R,6S)-7,7-difluoro-1-methyl-2,5-dioxabicyclo[4.1.0]heptan-3-yl)methoxy)phenyl)-2-oxo-6-(trifluoromethyl)-1,2-dihydropyridine-3-carboxamide] | 5 to 10 µM
COC[C@@H]1COC[C@@H](COc2ccc(-c3cc(C(N)=O)c(=O)[nH]c3C(F)(F)F)cc2)O1 [Example 399, 5-(4-(((2S,6R)-6-(methoxymethyl)-1,4-dioxan-2-yl)methoxy)phenyl)-2-oxo-6-(trifluoromethyl)-1,2-dihydropyridine-3-carboxamide] | 5 to 10 µM
C[C@]1(COC(F)F)COC[C@@H](COc2ccc(-c3cc(C(N)=O)c(=O)[nH]c3C(F)(F)F)cc2)O1 [Example 425, 5-(4-(((2S,6R)-6-((difluoromethoxy)methyl)-6-methyl-1,4-dioxan-2-yl)methoxy)phenyl)-2-oxo-6-(trifluoromethyl)-1,2-dihydropyridine-3-carboxamide] | 5 to 10 µM
COC[C@]1(C)COC[C@H](COc2ccc(-c3cc(C(N)=O)c(=O)[nH]c3C(F)(F)F)cc2)O1 [Example 407, 5-(4-(((2R,6R)-6-(methoxymethyl)-6-methyl-1,4-dioxan-2-yl)methoxy)phenyl)-2-oxo-6-(trifluoromethyl)-1,2-dihydropyridine-3-carboxamide] | 5 to 10 µM
NC(=O)c1cc(-c2ccc(OC[C@H]3COC[C@H](C4CC4)O3)cc2)c(C(F)(F)F)[nH]c1=O [Example 327, 5-(4-(((2R,6S)-6-cyclopropyl-1,4-dioxan-2-yl)methoxy)phenyl)-2-oxo-6-(trifluoromethyl)-1,2-dihydropyridine-3-carboxamide] | 5 to 10 µM
NC(=O)c1cc(-c2ccc(OCC3COCC(F)(F)C3)cc2)c(C(F)(F)F)[nH]c1=O (single isomer, unassigned) [Example 336, 5-(4-((5,5-difluorotetrahydro-2H-pyran-3-yl)methoxy)phenyl)-2-oxo-6-(trifluoromethyl)-1,2-dihydropyridine-3-carboxamide] | 5 to 10 µM
Cn1ncc2c1COCC2COc1ccc(-c2cc(C(N)=O)c(=O)[nH]c2C(F)(F)F)cc1 (single isomer, unassigned) [Example 290, 5-(4-((1-methyl-1,4,5,7-tetrahydropyrano[3,4-c]pyrazol-4-yl)methoxy)phenyl)-2-oxo-6-(trifluoromethyl)-1,2-dihydropyridine-3-carboxamide] | 5 to 10 µM
COC[C@H]1COC[C@@H](COc2ccc(-c3cc(C(N)=O)c(=O)[nH]c3C(F)(F)F)cc2)O1 [Example 398, 5-(4-(((2S,6S)-6-(methoxymethyl)-1,4-dioxan-2-yl)methoxy)phenyl)-2-oxo-6-(trifluoromethyl)-1,2-dihydropyridine-3-carboxamide] | 5 to 10 µM
NC(=O)c1cc(-c2ccc(OCC3COCC(CO)O3)cc2)c(C(F)(F)F)[nH]c1=O (stereo not shown) [Example 384, 5-(4-((6-(hydroxymethyl)-1,4-dioxan-2-yl)methoxy)phenyl)-2-oxo-6-(trifluoromethyl)-1,2-dihydropyridine-3-carboxamide] | 5 to 10 µM

same assay, conditions: read-out: RNP_Hubei B

Compound | IC50
CC(Oc1ccc(-c2cc(C(N)=O)c(=O)[nH]c2C(F)(F)F)cc1)c1cncnc1 (single isomer, unassigned) [Example 96, (R or S)-2-oxo-5-(4-(1-(pyrimidin-5-yl)ethoxy)phenyl)-6-(trifluoromethyl)-1,2-dihydropyridine-3-carboxamide] | 25 to 50 µM
NC(=O)c1cc(-c2ccc(OCc3ccc4no[n+]([O-])c4c3)cc2)c(C(F)(F)F)[nH]c1=O [Example 94] | 25 to 50 µM
NC(=O)c1cc(-c2ccc(OCc3cccnc3)cc2)c(C(F)(F)F)[nH]c1=O [Example 72, 2-oxo-5-(4-(pyridin-3-ylmethoxy)phenyl)-6-(trifluoromethyl)-1,2-dihydropyridine-3-carboxamide] | 25 to 50 µM
NC(=O)c1cc(-c2ccc(OCC3CN(CC(F)F)CCO3)cc2)c(C(F)(F)F)[nH]c1=O (stereo not shown) [Example 192, 5-(4-((4-(2,2-difluoroethyl)morpholin-2-yl)methoxy)phenyl)-2-oxo-6-(trifluoromethyl)-1,2-dihydropyridine-3-carboxamide] | 25 to 50 µM
CN1C(COc2ccc(-c3cc(C(N)=O)c(=O)[nH]c3C(F)(F)F)cc2)COCC1(C)C (stereo not shown) [Example 207, 2-oxo-6-(trifluoromethyl)-5-(4-((4,5,5-trimethylmorpholin-3-yl)methoxy)phenyl)-1,2-dihydropyridine-3-carboxamide] | 5 to 10 µM
NC(=O)c1cc(-c2ccc(OC(F)(F)C3COCCO3)cc2)c(C(F)(F)F)[nH]c1=O (stereo not shown) [Example 389, 5-(4-((1,4-dioxan-2-yl)difluoromethoxy)phenyl)-2-oxo-6-(trifluoromethyl)-1,2-dihydropyridine-3-carboxamide] | 5 to 10 µM
NC(=O)c1cc(-c2ccc(OCc3ccc(Cl)nc3)cc2)c(C(F)(F)F)[nH]c1=O [Example 176, 5-(4-((6-chloropyridin-3-yl)methoxy)phenyl)-2-oxo-6-(trifluoromethyl)-1,2-dihydropyridine-3-carboxamide] | 25 to 50 µM
CC(Oc1ccc(-c2cc(C(N)=O)c(=O)[nH]c2C(F)(F)F)cc1)c1cccc(C#N)c1 (single isomer, unassigned) [Example 98, (R or S)-5-(4-(1-(3-cyanophenyl)ethoxy)phenyl)-2-oxo-6-(trifluoromethyl)-1,2-dihydropyridine-3-carboxamide] | 1 to 5 µM
COc1ccc(-c2cc(C(N)=O)c(=O)[nH]c2C(F)(F)F)cc1Cl [Example 18, 5-(3-chloro-4-methoxyphenyl)-2-oxo-6-(trifluoromethyl)-1,2-dihydropyridine-3-carboxamide] | 10 to 25 µM
CC1(C2COCC(COc3ccc(-c4cc(C(N)=O)c(=O)[nH]c4C(F)(F)F)cc3)O2)CC1 (single isomer, unassigned) [Example 357, 5-(4-((6-(1-methylcyclopropyl)-1,4-dioxan-2-yl)methoxy)phenyl)-2-oxo-6-(trifluoromethyl)-1,2-dihydropyridine-3-carboxamide] | 5 to 10 µM
CC(O)c1ccc(-c2cc(C(N)=O)c(=O)[nH]c2C(F)(F)F)cc1 (stereo not shown) [Example 37, 5-(4-(1-hydroxyethyl)phenyl)-2-oxo-6-(trifluoromethyl)-1,2-dihydropyridine-3-carboxamide] | 25 to 50 µM
